Like-named read-outs stand apart in the source and are kept apart here.
Legend:
[1] = tested on: Corynebacterium minitissium; assay: test of corona treated solution against strains of bacteria (Example 3); assay type: cell-based; conditions: after 5 minutes
Protocol: (§1) The corona treated solution was then tested against several strains of bacteria and compared to untreated solutions of 1% hydrogen peroxide.

[2] = tested on: E. coli; assay: as above; assay type: cell-based; conditions: after 5 minutes
Protocol: as §1

[3] = tested on: Lysteria; assay: as above; assay type: cell-based; conditions: after 5 minutes
Protocol: as §1

[4] = pH measurement of the solution; assay type: physicochemical
Protocol: (§2) The peroxide concentration is determined by a potassium permanganate titration procedure and the devices used for the measurement of pH, ORP and conductivity are a WTW 537, a Testo 230 ORP and a HANNA EC device, respectively.

[5] = oxidation-reduction potential (ORP) measurement of the solution; assay type: physicochemical
Protocol: as §2

[6] = electrical conductivity measurement of the solution; assay type: physicochemical
Protocol: as §2

[7] = tested on: Escherichia coli; assay: bactericidal suspension test conform EN 1040 (Example 1); assay type: cell-based; conditions: after 5 minutes
Protocol: (§3) In a controlled bactericidal suspension test conform European Norm for testing of basic bactericidal activity of chemical disinfectants and antiseptics EN 1040, a 1 ml McFarland standard 0.5 (10^8 microorganisms per ml) was mixed 1:8 with the activated peroxide solution and 1 ml milli-Q water. After 10 minutes, Staphylococcus aureus was killed 100%, while Escherichia coli, Salmonella typhimurium, Rhodotorula rubra and Pseudomonas aeruginosa were all killed 100% already after 5 minutes. A 100% kill typically is shown by at least a log 5 reduction.

[8] = tested on: Pseudomonas aeruginosa; assay: as above; assay type: cell-based; conditions: after 5 minutes
Protocol: as §3

[9] = tested on: Rhodotorula rubra; assay: as above; assay type: cell-based; conditions: after 5 minutes
Protocol: as §3

[10] = tested on: Salmonella typhimurium; assay: as above; assay type: cell-based; conditions: after 5 minutes
Protocol: as §3

[11] = tested on: Staphylococcus aureus; assay: as above; assay type: cell-based
Protocol: as §3

| Compound | pH of the solution [4] | ORP of the solution [5] [mV] | conductivity [6] | also measured |
| --- | --- | --- | --- | --- |
| OO [standard 1% hydrogen peroxide, hydrogen peroxide] | – | – | – | reduced with log [1]: no countable reduction; reduced with log [2]: no countable reduction; reduced with log [3]: no countable reduction; pH of the solution ([4]; listed as 1% H2O2): approximately 4.4; ORP of the solution ([5]; listed as 1% H2O2): 390 mV; conductivity ([6]; listed as 1% H2O2): 30 μS/cm |
| OO [10% H2O2, hydrogen peroxide] | approximately 3.3 | 446 | 110 μS/cm | – |
| OO [0.1% H2O2, hydrogen peroxide] | approximately 4.9 | 355 | 20 μS/cm | – |
| OO [0.5% H2O2, hydrogen peroxide] | approximately 4.6 | 374 | approximately 21 μS/cm | – |
| OO [5% H2O2, hydrogen peroxide] | approximately 3.7 | 428 | 90 μS/cm | – |
| OO [3% H2O2, hydrogen peroxide] | approximately 3.9 | 411 | 60 μS/cm | – |
| OO [Example 3 starting solution, hydrogen peroxide] | 4.5 | 380 | 17.8 microSiemens/cm | – |
| OO [1.6% common hydrogen peroxide solution, hydrogen peroxide] | – | – | – | killed [7]: < 100%; killed [8]: < 100%; killed [9]: < 100%; killed / reduction [10]: 70%; reduction ([11]; after 5 minutes): none; reduction ([11]; after 20 minutes): 50% |
| OO [Example 1 solution before activation, hydrogen peroxide] | 5.8 | – | – | – |

Reference: patent US20070110779A1, “Activated peroxide solutions and a process for the preparation thereof” (ASEPTIX TECHNOLOGIES B.V., priority 2005, published 2007)
